# Settings: not given
SMILES,boiling point,melting point,log10 Koc (L/kg),log10 vapour pressure (mmHg),ready biodegradability,log10 Henry constant (atm·m³/mol),log10 Koa
CC(C)CC1CCCC1,148 °C,-115 °C,,,,,
Nc1nc2c(ncn2COCCO)c(=O)[nH]1,,255 °C,,,,,
Ic1ccc(I)cc1,285 °C,132 °C,,,,,
COC(=O)NC(=S)Nc1ccccc1NC(=S)NC(=O)OC,,,3.25,-7.15,,,
CCCCCC#CCC(=O)O,,17 °C,,,,,
CCC=C(C)CC,112 °C,,,1.91,,,
C=C[Si](C)(Cl)Cl,92.5 °C,,,,,,
c1ccc(-c2cccnc2)nc1,296 °C,,,,,,
CC1CCC(O)CC1 (stereo not drawn),172 °C,,,,,,
CC(C)c1ccc(C(C)C)c(C(C)C)c1,244 °C,,,,,,
CN(C)Cc1c[nH]c2ccccc12,,138 °C,,,,,
CS(=O)(=O)c1c(F)c(F)c(F)c(F)c1F,,,1.46,,,,
CC(C)CCCCC(C)C,160 °C,-54.9 °C,,,,,
CC(C)NCC(O)COc1cccc2[nH]ccc12 (stereo not drawn),,171 °C,,,,,
CCc1oc2ccccc2c1C(=O)c1cc(Br)c(O)c(Br)c1,,151 °C,,,,,
CCC(CC)CCC(C)C,160 °C,,,,,,
CN(C)C1=NC(=O)C(c2ccccc2)O1 (stereo not drawn),,134 °C,,,,,
OCC#CCO,238 °C,50 °C,,-3.25,,,
O=S(=O)(O)c1ccc(Nc2ccccc2)cc1,,206 °C,,,,,
CCOC(CC)(OCC)OCC,171 °C,,,,,,
CC(C)(C)C(=O)OCOc1ccccc1C(N)=O,,95 °C,,,,,
C[C@]12CCC(=O)C=C1CC[C@@H]1[C@@H]2C(=O)C[C@@]2(C)[C@H]1CC[C@]2(O)[C@H](O)CO,,208 °C,,,,,
CCCCCCCCCCCCCc1ccccc1,346 °C,10 °C,,-4.9,,,
Clc1cccc(Nc2ccccc2)c1,338 °C,,,,,,
COc1ccc(CN(CCN(C)C)c2ncccn2)cc1.Cl,,174 °C,,,,,
CC(=O)Cc1ccco1,180 °C,29 °C,,,,,

SMILES,boiling point,melting point,log10 Koc (L/kg),log10 vapour pressure (mmHg),ready biodegradability,log10 Henry constant (atm·m³/mol),log10 Koa
CNC(=O)COC(=O)c1ccccc1,,112 °C,,,,,
CCCCOC(=O)CCl,183 °C,,,,,,
CCC(O)C(Cl)(Cl)Cl (stereo not drawn),171 °C,,,,,,
Nc1cccc(S(=O)(=O)O)c1,,,,,not readily biodegradable,,
COc1cc(C#N)ccc1O,,86 °C,,,,,
CC(=O)C(C)(C)C(C)=O,173 °C,19 °C,,,,,
NC(=O)CN1Cc2ccccc2OC1=O,,204 °C,,,,,
CO[Si](CCCN=C(N(C)C)N(C)C)(OC)OC,,,,,not readily biodegradable,,
O=Nc1ccc(Nc2ccccc2)cc1,292 °C,143 °C,,,not readily biodegradable,,
O=C(Cl)CCCl,144 °C,,,,,,
Cc1c(COC(=O)[C@@H]2[C@H](/C=C(\Cl)C(F)(F)F)C2(C)C)cccc1-c1ccccc1 (racemic),,69 °C,5.35,-6.74,,,
CCC(=O)c1ccco1,,28 °C,,,,,
Clc1ccc(Oc2ccccc2Cl)cc1,,,,-3.15,,,
Clc1cccc(Cl)c1Cl,218 °C,53.5 °C,3.33,-0.678,not readily biodegradable,-2.9,5.19
Nc1ccc(Nc2ccccc2)c2c1C(=O)c1ccccc1C2=O,,192 °C,,,,,
NC(=O)CCC/N=C(\c1ccc(Cl)cc1)c1cc(F)ccc1O,,134 °C,,,,,
CCCC(c1ccc(O)cc1)c1ccc(O)cc1,,137 °C,,,,,
Cc1ccc(C)c2ncccc12,266 °C,4.5 °C,,,,,
CC[C@@H](CO)NC(=O)[C@@H]1C=C2c3cccc4c3c(cn4C)C[C@H]2N(C)C1,,195 °C,,,,,
O=C(OCc1ccccc1)c1sc(Cl)nc1C(F)(F)F,,52 °C,,-6.53,,,
Cn1nc2ccc(NC(=O)c3ccccc3)cc2n1,,166 °C,,,,,
CCCCCC1CCCCC1,204 °C,-57.5 °C,,-0.429,,,
CCC(=O)C(=O)CC,130 °C,-10 °C,,,,,
CC(Cl)(Cl)Cl,74 °C,-30.4 °C,1.95,2.09,not readily biodegradable,-1.76,2.7
CN(C)C(CSC(N)=O)CSC(N)=O.Cl,,180 °C,,,,,
CC(=O)Nc1ccc(S(=O)(=O)Nc2ccc([N+](=O)[O-])cc2)cc1,,240 °C,,,,,

SMILES,boiling point,melting point,log10 Koc (L/kg),log10 vapour pressure (mmHg),ready biodegradability,log10 Henry constant (atm·m³/mol),log10 Koa
COC(=O)c1ccc(C)cc1C,232 °C,-2 °C,,,,,
CCOC(=O)C(Br)CBr (stereo not drawn),214 °C,,,,,,
NS(=O)(=O)c1cc2c(cc1C(F)(F)F)NC(Cc1ccccc1)NS2(=O)=O (stereo not drawn),,222 °C,,,,,
N#C/C=C/c1ccccc1,264 °C,22 °C,,,,,
O=C(O)Cc1cccc([N+](=O)[O-])c1,,118 °C,,,,,
CCCCCCCCCCCCC#N,293 °C,9.7 °C,,,,,
CC1(C)CC(C)(c2ccccc2)c2ccccc21 (stereo not drawn),308 °C,52.5 °C,,,,,
CC(=O)N1CCN(c2ccc(OC[C@H]3CO[C@](Cn4ccnc4)(c4ccc(Cl)cc4Cl)O3)cc2)CC1,,146 °C,,,,,
CCCCc1cccc2ccccc12,289 °C,-19.8 °C,,,,,
FCCCBr,101 °C,,,,,,
BrC(Br)(Br)c1ccc2ccccc2n1,,128 °C,,,,,
COC(=O)[C@H]1[C@H]2C[C@@H]3c4[nH]c5ccccc5c4CCN3C[C@H]2C[C@@H](OC(=O)c2cc(OC)c(OC)c(OC)c2)[C@@H]1OC,,230 °C,,,,,
Cc1cc(O)c(C(C)C)cc1C1(c2cc(C(C)C)c(O)cc2C)OC(=O)c2ccccc21,,253 °C,,,,,
Cc1nc(C)c(Cl)c(O)c1Cl,,320 °C,,,,,
CC(=O)c1ccc(-c2ccccc2)cc1,326 °C,121 °C,3.22,,,,
CCSC#N,146 °C,-85.5 °C,,,,,
CC1CCCCC1=O (stereo not drawn),162 °C,,,0.352,,,
C=Cc1cccnc1,162 °C,,,,,,
O=[N+]([O-])c1ccc2cccnc2c1,,132 °C,,,,,
C1=C\CC/C=C\CC/1,,,,,not readily biodegradable,,
FC(F)(Cl)Br,-3.7 °C,-160 °C,,3.31,,,
N#Cc1ccc(Cl)cc1,223 °C,95 °C,,,,,
C1COCCO1,102 °C,11.8 °C,1.23,1.58,not readily biodegradable,-5.32,3.18
Ic1cc(I)c(I)c(I)c1I,,172 °C,,,,,
Nc1c(Cl)cccc1Cl,,39 °C,3.25,,,,
Cc1cc2ccccc2o1,198 °C,,,-0.312,,,

SMILES,boiling point,melting point,log10 Koc (L/kg),log10 vapour pressure (mmHg),ready biodegradability,log10 Henry constant (atm·m³/mol),log10 Koa
Nc1cc(C(Cl)=C(Cl)Cl)c(S(N)(=O)=O)cc1S(N)(=O)=O,,203 °C,,,,,
Clc1cc(Cl)c2c(Cl)ccc(Cl)c2c1,,,,,,,8.28
O=C1NN(c2ccccc2)C(=O)C1c1ccccc1 (stereo not drawn),,234 °C,,,,,
CC(O)CNCC(C)O (stereo not drawn),250 °C,44.5 °C,,-3.9,readily biodegradable,,
CCCCCCCCCCCC(=O)CC,,34 °C,,,,,
c1cc[nH]c1,130 °C,-23.4 °C,,0.922,readily biodegradable,-4.74,
CCNC(=O)NC(=O)/C(C#N)=N/OC,,160 °C,2.09,-5.95,,,
NC(=O)NC1NC(=O)NC1=O (stereo not drawn),,238 °C,,,,,
Clc1ccc(Cl)c(I)c1,253 °C,22 °C,,,,,
COc1ccccc1Oc1ccccc1OC,330 °C,79.5 °C,,,,,
O=C(O)C(F)(F)C(F)F,134 °C,,,,,,
CC#Cc1ccccc1,183 °C,,,,,,
CC(C)CC#N,128 °C,-101 °C,,,,,
CCC1(c2ccc(N)cc2)CCC(=O)NC1=O (stereo not drawn),,150 °C,,,,,
CNC(=O)Oc1ccccc1OC(C)C,,87 °C,1.67,-5.01,readily biodegradable,,
O=C1c2ccccc2C(=O)c2c1cc(O)c(O)c2O,,313 °C,,,,,
COc1cccc(N)c1,251 °C,-1 °C,,-1.12,not readily biodegradable,,
CCOc1ccc(N)cc1,254 °C,2.4 °C,,-1.98,not readily biodegradable,,
C=CCCCCC=C,116 °C,,,,,,
c1ccc2c(c1)ccc1nc3ccc4ccccc4c3cc12,,216 °C,,,,,
Cc1cc(Cl)ccc1NC(=S)N(C)C,,175 °C,,,,,
CCCC(=O)O[C@]1(C(=O)CCl)[C@@H](C)C[C@H]2[C@@H]3CCC4=CC(=O)C=C[C@]4(C)[C@@]3(F)C(=O)C[C@@]21C,,95 °C,,,,,
CCCCCCCCCCCC[N+](C)(C)Cc1ccccc1,,,,,not readily biodegradable,,

# Same assay, conditions: fish
SMILES,log10 biotransformation half-life (days),log10 BCF
CCCCCCCCc1ccc2ccc3cccc4ccc1c2c34,1.26,
Clc1ccc(Oc2c(Cl)cc(Cl)cc2Cl)c(Cl)c1,1.69,
Clc1cccc(Cl)c1Cl,0.92,2.82
CC(Cl)(Cl)Cl,-1.39,0.7
C1COCCO1,,-0.3
CCOc1ccc(N)cc1,-1.24,1
